From patent US20030124150A1, “Kit for reducing aching” (priority 2001, published 2003)
One block for each molecule: values may come before it.

Legend:
subjects [1] = test: Study 1: double blind, placebo-controlled, multiple dose study of sildenafil, adverse events (myalgia, back pain); type: in vivo; settings: for Back pain / Myalgia: oral capsules, subjects affected/subjects dosed
Description: (§1) All adverse events observed or recorded during the studies were recorded by the investigator, including information about concomitant illnesses and therapeutic interventions. For all adverse events, the investigator pursued and obtained information adequate to determine the outcome of the adverse event. Physical examinations at screening and medical histories of all subjects were normal with no indication of any joint, muscle, or tendon weakness.
Dosage took the form of oral capsules.

subjects [2] = test: Aching as side effect of multiple dosing of PDE5 inhibitors (background observations); settings: for aching as a side effect of multiple dosing: in vivo
Source text: A problem associated with the multiple daily dosing of PDE5 inhibitors is that subjects experience, as a side effect, aching in certain parts of the body. Subjects describe this aching as predominantly a dull aching without muscle tenderness. Aching is experienced predominantly in the“postural muscles”, typically the calves, thighs, buttocks, lower back, shoulders and neck regions. These symptoms may be described as myalgia or back pain; for the purposes of this application, they will be referred to as“aching”.

subjects [3] = test: Study 2: Compound A multiple dosing, non-escalating (Example 3) vs escalating (Example 4), myalgia/back pain (aching); type: in vivo; settings: for Myalgia/back pain, Mild/moderate / Myalgia/back pain, Severe: subjects affected/dosed
Description: as §1
Six subjects were given 20 mg of Compound A three times a day (tid) for 7 days. Dosage took the form of immediate release tablets.
Nine subjects were given 2.5 mg of Compound A three times a day (tid) for 7 days, then 7.5 mg tid for 7 days, then 20 mg tid for a further 7 days. Dosage took the form of immediate release tablets.

subjects [4] = test: Study 3: Compound A escalating dosing with 24-hour drug holiday (Examples 6 and 7), myalgia and back pain (aching); type: in vivo; settings: for Back pain, Mild / Back pain, Moderate / Back pain, Severe / Myalgia, Mild / Myalgia, Moderate / Myalgia, Severe: 20 mg tid 7 days, 24-hour drug holiday, 20 mg tid 6 days, subjects affected/dosed
Description: as §1
(§2) Nine subjects were given 2.5 mg of Compound A three times a day (tid) for 7 days followed by 20 mg tid for a further 7 days. The subjects were given a 24-hour drug holiday, i.e. a day without taking the inhibitor, then 20 mg tid dosing was continued for another 6 days. Dosage took the form of immediate release tablets.
as §2, with “4 days, then 7.5 mg tid for 3 days, then” for “7 days followed by”

subjects [5] = settings: reported by H Padma-Nathan et al and Eli Lilly/ICOS presentation; cited from earlier work
[6] = Example 3: 20 mg tid for 7 days, immediate release tablets
[7] = Example 4: 2.5 mg tid 7 days, then 7.5 mg tid 7 days, then 20 mg tid 7 days
[8] = Example 4 escalating dosing regime
[9] = Example 6 escalating dosing regime
[10] = Example 7: 2.5 mg tid 4 days, 7.5 mg tid 3 days
[11] = Example 7 escalating dosing regime

Compound: CCCc1nn(C)c2c(=O)[nH]c(-c3cc(S(=O)(=O)N4CCN(C)CC4)ccc3OCC)nc12 [sildenafil, 5-[2-ethoxy-5-(4-methyl-1-piperazinylsulphonyl)phenyl]-1-methyl-3-n-propyl-1,6-dihydro-7H-pyrazolo[4,3-d]pyrimidin-7-one]
Back pain (subjects [1]; 25 mg tid): 2/10
Myalgia (subjects [1]; 25 mg tid): 2/10
Back pain (subjects [1]; 50 mg tid): 2/9
Myalgia (subjects [1]; 50 mg tid): 5/9
reports of severe treatment-related adverse events which led to discontinuance of the treatment (subjects [1]; 75 mg tid): three
Back pain (subjects [1]; 75 mg tid): 5/8
Myalgia (subjects [1]; 75 mg tid): 3/8
most common adverse events (subjects [1]; 25, 50 or 75 mg tid): back pain, headache and myalgia
persistence of headache and myalgia that occurred after a few days of treatment (subjects [1]; lower doses (25 mg tid and 50 mg tid)): did not persist with further treatment
incidence of aching (subjects [2]; 25 mg tid): 60%
incidence of aching (subjects [2]; 75 mg tid): 100%
day by which aching disappears (subjects [2]; higher doses (for example, 75 mg tid)): sixth or seventh day
day on which aching generally commences (subjects [2]; multiple dosing regime): second or third day

Compound: CCCOc1ccc(S(=O)(=O)N2CCN(CC)CC2)cc1-c1nc2c(CC)n(Cc3ccccn3)nc2c(=O)[nH]1 [WO 98/49166, Example 4, 3-ethyl-5-[5-(4-ethylpiperazin-1-ylsulphonyl)-2-n-propoxyphenyl]-2-(pyridin-2-yl)methyl-2,6-dihydro-7H-pyrazolo[4,3-d]pyrimidin-7-one]
aching as a side effect of multiple dosing (subjects [2]): observed

Compound: CCc1c2nc(-c3cc(S(=O)(=O)N4CCN(CC)CC4)cnc3OCCOC)[nH]c(=O)c2nn1Cc1ccccn1 [WO 99/54333, Example 4, 3-ethyl-5-[5-(4-ethylpiperazin-1-ylsulphonyl)-2-(2-methoxyethoxy)pyridin-3-yl]-2-(pyridin-2-yl)methyl-2,6-dihydro-7H-pyrazolo[4,3-d]-pyrimidin-7-one]
aching as a side effect of multiple dosing (subjects [2]): observed

Myalgia/back pain, Mild/moderate (subjects [3]; [6]): 0/6
Myalgia/back pain, Severe (subjects [3]; [6]): 6/6
subjects withdrawn due to the severity of the aching (subjects [3]; Example 3: 20 mg tid, after only 4 days of treatment, six subjects): four
Myalgia/back pain, Mild/moderate (subjects [3]; [7]): 1/9
Myalgia/back pain, Severe (subjects [3]; [7]): 1/9
aching compared with non-escalating regime of Example 3 (subjects [3]; [8]): significant reduction in aching
withdrawals (subjects [3]; [8]): no withdrawals
Back pain, Mild (subjects [4]; Example 6: 2.5 mg tid 7 days): 2/9
Back pain, Moderate (subjects [4]; Example 6: 2.5 mg tid 7 days): 0/9
Back pain, Severe (subjects [4]; Example 6: 2.5 mg tid 7 days): 0/9
Myalgia, Mild (subjects [4]; Example 6: 2.5 mg tid 7 days): 2/9
Myalgia, Moderate (subjects [4]; Example 6: 2.5 mg tid 7 days): 3/9
Myalgia, Severe (subjects [4]; Example 6: 2.5 mg tid 7 days): 1/9
aching compared with non-escalating regime of Example 3 (subjects [4]; [9]): significant reduction in aching
withdrawals (subjects [4]; [9]): no withdrawals
Back pain, Mild (subjects [4]; [10]): 0/9
Back pain, Moderate (subjects [4]; [10]): 0/9
Back pain, Severe (subjects [4]; [10]): 0/9
Myalgia, Mild (subjects [4]; [10]): 4/9
Myalgia, Moderate (subjects [4]; [10]): 1/9
Myalgia, Severe (subjects [4]; [10]): 0/9
aching compared with non-escalating regime of Example 3 (subjects [4]; [11]): significant reduction in aching
withdrawals (subjects [4]; [11]): no withdrawals
Compound: CCCc1nn(C)c2c(=O)[nH]c(-c3cc(C(=O)CN4CCOCC4)ccc3OCC)nc12 [Compound A, 5-(2-ethoxy-5-morpholinoacetylphenyl)-1-methyl-3-n-propyl-1,6-dihydro-7H-pyrazolo[4,3-d]pyrimidin-7-one]
incidence of aching after the 24-hour drug-free period (subjects [4]; Example 6, 20 mg tid resumed): no apparent increase
effectiveness of triple dosing in reducing aching (subjects [4]; Example 7 (triple dosing)): particularly effective in reducing aching
incidence of aching after the 24-hour drug-free period (subjects [4]; Example 7, 20 mg tid resumed): no apparent increase

Compound: CN1CC(=O)N2[C@H](c3ccc4c(c3)OCO4)c3[nH]c4ccccc4c3C[C@@H]2C1=O [tadalafil, (6R, 12aR)-2,3,6,7,12,12a-hexahydro-2-methyl-6-(3,4-methylenedioxyphenyl)-pyrazino[2′,1′:6,1]pyrido[3,4-b]indole-1,4-dione]
backache and myalgia (subjects [5]): reported to cause backache and myalgia
